# Tests used:
# [1] = system: aminoketone asymmetric reductase; test: Substrate specificity and enzyme activity of purified enzyme (NADPH absorbance at 340 nm); format: biochemical, Rhodococcus erythropolis; conditions: for enzyme acts on the compound (substrate specificity): purified enzyme
# Method: While 10 μl of 1 M Tris-hydrochloric acid buffer solution (pH 8.0), 25 μl of 16 mM NADP^+, and 215 μl of the purified enzyme solution were held at 43° C., 1 μl of 1-amino-2-hydroxypropane was added thereto, whereby aminoacetone was produced. The increase or decrease in NADPH accompanying the reaction was measured by the change in absorbance at 340 nm. In the measurement of enzyme activity, the enzyme activity by which 1 μmol of 1-amino-2-hydroxypropane was oxidized per 1 min under the following condition was defined as 1 unit (U). As a result, the whole activity was 126 mU, the specific activity was 432 mU/mg, and the activity yield was 0.22%.
# It was similarly confirmed that the enzyme acted on 1-2-methylaminopropiophenone, 1-2-dimethylaminopropiophenone, and 1-amino-2-butanone.
# [2] = system: aminoketone asymmetric reductase; format: biochemical, Rhodococcus erythropolis; conditions: inhibitor at a concentration of 1 mM; purified enzyme
# Method: While 10 μl of 1 M Tris-hydrochloric acid buffer solution (pH 8.0), 25 μl of 16 mM NADP^+, and 215 μl of the purified enzyme solution were held at 43° C., 1 μl of 1-amino-2-hydroxypropane was added thereto, whereby aminoacetone was produced. The increase or decrease in NADPH accompanying the reaction was measured by the change in absorbance at 340 nm. In the measurement of enzyme activity, the enzyme activity by which 1 μmol of 1-amino-2-hydroxypropane was oxidized per 1 min under the following condition was defined as 1 unit (U).
# [3] = system: Rhodococcus erythropolis MAK-34; format: cell-based
# [4] = system: Mycobacterium smegmatis IAM-12065; format: cell-based
# [5] = system: Mycobacterium chlorophenolicum IFO-15527; format: cell-based
# [6] = system: Nocardioides simplex IFO-12069; format: cell-based
# [7] = system: Klebsiella pneumoniae IFO-3319; format: cell-based
# [8] = system: Absidia lichtheimi IFO-4409; format: cell-based
# [9] = system: Aspergillus awamori IFO-4033; format: cell-based
# [10] = system: Aspergillus candidus IFO-5468; format: cell-based
# [11] = system: Penicillium cyaneum IFO-5337; test: Influence of inducer addition on d-pseudoephedrine production (Example 6); format: cell-based; conditions: cells cultured with inducer 5 g/L, medium 4
# [12] = system: Hypocrea gelatinosa IFO-9165; test: as above; format: cell-based; conditions: cells cultured with inducer 5 g/L, medium 4
# [13] = system: Helicostylum nigricans IFO-8091; format: cell-based
# [14] = system: Tritirachium oryzae IFO-7544; format: cell-based
# [15] = system: Armillariella mellea IFO-31616; test: Influence of inducer addition on d-pseudoephedrine production (Example 6); format: cell-based; conditions: cells cultured with inducer 5 g/L, medium 4
# [16] = system: Rhodococcus erythropolis MAK-34 strain; format: cell-based
# [17] = system: aminoketone asymmetric reductase; test: Optimum pH and optimum temperature of purified enzyme; format: biochemical, Rhodococcus erythropolis; conditions: 1-amino-2-propanol, NADP+
# Method: Ten microliters of the purified enzyme solution, 420 μL of water, 20 μL of 1 M Tris-hydrochloric acid buffer solution, and 50 μL of 16 mM aqueous NADP^+ solution was mixed, and incubated at 45° C., and 2 μL of 1-amino-2-propanol were added thereto, so as to react therewith. Using a spectrophotometer, the activity was calculated from the change in absorbance at 340 nm with time (FIG. 2). As a result, the optimum pH was about 8.1.
# Ten microliters of the purified enzyme solution, 420 μL of water, 20 μL of 0.1 M PIPES buffer solution (pH 7.5), and 50 μL of 16 mM aqueous NADP^+ solution was mixed, and incubated at various temperatures, and 2 μL of 1-amion-2-propanol were added thereto, so as to react therewith. Using a spectrophotometer, the activity was calculated from the change in absorbance at 340 nm with time (FIG. 3). As a result, the optimum temperature was 55° C.
molecule,measurement,setting,value
CC(C(=O)c1ccccc1)N(C)C (centres unmarked) [1-2-dimethylaminopropiophenone],enzyme acts on the compound (substrate specificity),[1],acted on
c1cnc2c(c1)ccc1cccnc12 [o-phenanthroline],enzyme activity inhibited by inhibitor,[2],inhibited
O=C(O)CN(CCN(CC(=O)O)CC(=O)O)CC(=O)O [EDTA],enzyme activity inhibited by inhibitor,[2],inhibited
NC1CCCCC1O (centres unmarked) [1-amino-2-hydroxycyclohexane],AMOUNT OF PRODUCTION (ADDED),[3],0.23 mg
same,AMOUNT OF PRODUCTION (ADDED),[4],0.13 mg
CC(O)CN (centres unmarked) [1-amino-2-hydroxypropane],enzyme acts on the compound (substrate specificity),[1],acts on
same,AMOUNT OF PRODUCTION (ADDED),[3],1.260 mg
same,AMOUNT OF PRODUCTION (ADDED),[5],0.770 mg
same,AMOUNT OF PRODUCTION (ADDED),[4],0.210 mg
same,AMOUNT OF PRODUCTION (ADDED),[6],0.190 mg
same,AMOUNT OF PRODUCTION (ADDED),[7],0.066 mg
same,AMOUNT OF PRODUCTION (ADDED),[8],0.220 mg
same,AMOUNT OF PRODUCTION (ADDED),[9],1.170 mg
same,AMOUNT OF PRODUCTION (ADDED),[10],0.018 mg
same,AMOUNT OF PRODUCTION (ADDED),[11],1.260 mg
same,AMOUNT OF PRODUCTION (ADDED),[12],0.640 mg
same,AMOUNT OF PRODUCTION (ADDED),[13],0.520 mg
same,AMOUNT OF PRODUCTION (ADDED),[14],0.078 mg
same,AMOUNT OF PRODUCTION (ADDED),[15],0.460 mg
CC(=O)CN [1-amino-2-oxopropane],enzyme acts on the compound (substrate specificity),[1],reduction activity
same,AMOUNT OF PRODUCTION,[16],1.97 mg
CNC(C)C(=O)c1ccccc1 (centres unmarked) [1-2-methylaminopropiophenone],enzyme acts on the compound (substrate specificity),[1],acted on
CCC(O)CN (centres unmarked) [1-amino-2-hydroxybutane],AMOUNT OF PRODUCTION (ADDED),[3],0.65 mg
same,AMOUNT OF PRODUCTION (ADDED),[4],0.17 mg
"c1ccc(-c2ccccn2)nc1 [α,α′-dipyridyl]",enzyme activity inhibited by inhibitor,[2],inhibited
CCC(=O)CN [1-amino-2-butanone],enzyme acts on the compound (substrate specificity),[1],acted on
"aminoketone asymmetric reductase: enzyme purified from Rhodococcus erythropolis MAK-34; SEQ ID NO:1; tetramer of about 28,500 subunits; coenzyme NADP (protein, listed as Rhodococcus erythropolis, tetramer, enzyme purified from Rhodococcus erythropolis MAK-34; tetramer of about 28,500 subunits; coenzyme NADP) MFNSIEGRSVVVTGGSKGIGLGMVRVFARAGANVLMTARDALTLERAAEGLNGLPGAVSTLQVDVTNPDSLAGMAEVAAERHGGIDVLCANAGIFPSKRLGEMTSEDMDSVFGVNVKGTIHAVQACMPWLETSGRGRVVVTSSITGPVTGYPGWSHYGASKAAQMGFIRTAAIELAPKRITINAVLPGNVITEGLDGLGQEYLDQMASSVPAGSLGSVEDIANAALFFALDEAAYITGQSLIVDGGQVLPESAMALGEL",specific activity,"[1]; oxidation of 1-amino-2-hydroxypropane, NADP+, pH 8.0, 43° C., 1 U = 1 μmol per 1 min",432 mU/mg
same,optimum temperature,[17]; PIPES buffer pH 7.5,55 °C
same,optimum pH,"[17]; Tris-hydrochloric acid buffer, 45° C.",about 8.1
